Data reported in paper PMC3620930 (Molecular oral microbiology, 2012).

Key:
Test in all cases: inhibition of amidolytic activity
Type in all cases: biochemical
Lys-gingipain = Lys-gingipain (Porphyromonas gingivalis, UniProt P72197)
HRgpA = HRgpA (Porphyromonas gingivalis, UniProt P28784)
RgpB = RgpB (Porphyromonas gingivalis, UniProt P95493)

`N=C(N)c1ccc(CC2CCCC(Cc3ccc(C(=N)N)cc3)C2=O)cc1` (stereo not drawn) [2,6-bis-(4-amidinobenzyl)-cyclohexanone] was tested, and the Ki (Lys-gingipain) was over 1000 µM, the Ki (HRgpA) was 2.9 µM and the Ki (RgpB) was 0.51 µM.

For `N=C(N)c1ccccc1` [benzamidine], the Ki (Lys-gingipain) was over 1000 µM, the Ki (HRgpA) was 536 µM and the Ki (RgpB) was 277 µM.

For `N=C(N)c1ccc(OCCCCCOc2ccc(C(=N)N)cc2)cc1` [pentamidine], the Ki (Lys-gingipain) was over 1000 µM, the Ki (HRgpA) was 107 µM and the Ki (RgpB) was 40.3 µM.
